Legend:
[1] = tested on: NRG1; assay: NRG1 isoform expression in stem cells after DAC treatment (RT-qPCR); type: cell-based, human
Text: A. Microarray data showing that NRG1 is preferentially expressed in clonal cell line AF2, both stem cells and adipocytes. UCP1 is a brown adipose tissue (BAT) marker and UCP2 is a white adipose tissue (WAT) marker. Adiponectin (ADIPOQ) shown as a differentiation control. P-values calculated relative to NRG4 using 1-way ANOVA. Analysis of gene expression in mouse adipose precursor cell lines isolated from inguinal (B) or perigonadal (C) depots of a male mouse. […] NRG, Neuregulin; UCP, uncoupling protein; AdipoQ, adiponectin. Isoform-specific epigenetic induction of NRG1 expression in primary human cells, clonal (D) and raw processed lipoaspirate (E). Expression of NRG1 is induced with demethylating agent decitabine (DAC). Types I-III represent distinct transcriptional start sites within the NRG1 locus and produce different mRNA isoforms (see FIG. 7D for map). The Type III isoform is specifically DAC responsive. P-values derived from Tukey's HSD post-hoc test after ANOVA and are relative to corresponding matched DMSO control. Note Type II isoform expression was not detected in the stem cells.
First, by evaluating gene expression in stem cells immediately after DAC treatments (rather than differentiated cells), we minimized secondary gene expression changes caused by the differentiation process itself. […]

[2] = tested on: AF2 cells; assay: adipose differentiation assay with AF2 clonal cells; type: cell-based, human
Text: Because patient-derived cells, such as ASCs, are highly heterogeneous, it is vital to ensure that the differences in cell behavior are truly fate decisions and not a measure of non-stem cell contamination (perhaps immune cells, fibroblasts, or other cells). We therefore have performed our experiments with clonally-derived cells expanded in the inventor's laboratory. Many of our experiments use a single clonal line isolated from ASC080414A (Zen-Bio, Inc.), called the AF2 line. Clonal isolation has the advantage of minimizing both genetic and epigenetic variance, which enabled us to identify a highly significant signal in our data (FIG. 6E).
First, by evaluating gene expression in stem cells immediately after DAC treatments (rather than differentiated cells), we minimized secondary gene expression changes caused by the differentiation process itself. Second, hypothesizing that the expression of driver genes will more strongly correlate with differentiation efficiency than passenger genes, we obtained the Pearson's correlation between candidate gene expression in stem cells and the relative formation of adipocytes after 14-18 days of adipogenic induction. Third, we used a clonal cell line (AF2) in order to minimize epigenetic variability between cells. […]

Molecule | up-regulation of one NRG1 isoform (Type III) relative to DMSO control ([1]; 1 μM DAC) | increase of NRG1 Type I isoform ([1]; DAC vs DMSO) [fold] | differentiation induction by recombinant NRG1 peptide added to culture media ([2]; AF2 clonal cells) | activating dose of NRG1 peptide ([2]; stem cells, FIGS. 7A,B,C) [ng/mL]
Nc1ncn([C@H]2C[C@H](O)[C@@H](CO)O2)c(=O)n1 [DAC, 5-aza-2′-deoxycitidine] | approximately 10 fold | ~2 | – | –
NRG1 EGF-β peptide: recombinant NRG1 EGF-β domain peptide, 65 amino acids, BioLegend Cat # 711104 (protein, listed as Homo sapiens) SHLVKCAEKEKTFCVNGGECFMVKDLSNPSRYLCKCPNEFTGDRCQNYVMASFYKHLGIEFMEAE | – | – | able to recapitulate the differentiation induction observed with DAC | 200

Source: patent US20200131238A1, “METHOD FOR PROMOTING ADIPOCYTE DIFFERENTIATION AND OBESITY-RELATED DISEASE TREATMENT” (AMERICAN UNIVERSITY, priority 2018, published 2020)
